Reference: patent US7074789B2, “Kinase inhibitors” (Amgen Inc., priority 1999, dated 2006)
Like-named read-outs stand apart in the source and are kept apart here.

Legend:
Format in all cases: biochemical
Zap-70 = target: T1, Zap-70 (Homo sapiens, UniProt P43403); assay: Kinase inhibition assay (33P transfer), Zap-70; settings: for IC50: read-out: Zap-1
T1 construct: Kinases are expressed as either kinase domains or full length constructs; made in house
T1 sequence (P43403 1-619): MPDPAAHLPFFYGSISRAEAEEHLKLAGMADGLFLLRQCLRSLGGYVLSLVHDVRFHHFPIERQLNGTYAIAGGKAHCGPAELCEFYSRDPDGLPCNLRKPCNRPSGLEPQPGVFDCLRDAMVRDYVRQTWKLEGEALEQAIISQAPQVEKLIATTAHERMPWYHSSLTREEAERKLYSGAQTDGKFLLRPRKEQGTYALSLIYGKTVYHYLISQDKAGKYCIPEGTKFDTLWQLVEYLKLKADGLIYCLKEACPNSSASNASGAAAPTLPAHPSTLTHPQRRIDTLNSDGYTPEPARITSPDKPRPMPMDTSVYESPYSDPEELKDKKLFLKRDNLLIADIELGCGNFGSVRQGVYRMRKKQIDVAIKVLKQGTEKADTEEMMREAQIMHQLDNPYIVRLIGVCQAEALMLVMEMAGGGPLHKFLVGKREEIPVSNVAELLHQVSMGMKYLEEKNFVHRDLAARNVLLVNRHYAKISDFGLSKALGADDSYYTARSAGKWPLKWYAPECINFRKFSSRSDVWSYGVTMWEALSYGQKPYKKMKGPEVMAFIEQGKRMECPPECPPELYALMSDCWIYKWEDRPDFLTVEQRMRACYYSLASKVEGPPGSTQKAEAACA
Excerpt: (§1) The inhibitor compounds described herein are screened in the following manner. Kinases suitable for use in the following protocol to determine kinase activity of the compounds described herein include, -but are not limited to: Lck, Lyn, Src, Fyn, Syk, Zap-70, Itk, Tec, Btk, EGFR, ErbB2, Kdr, Flt-1, Flt-3, Tek, c-Met, InsR, and AKT.
(§2) Kinases are expressed as either kinase domains or full length constructs fused to glutathione S-transferase (GST) or polyHistidine tagged fusion proteins in either E. colior Baculovirus-High Five expression systems. […] In some instances, kinases are co-expressed or mixed with purified or partially purified regulatory polypeptides prior to measurement of activity.
(§3) Briefly, The transfer of ^33PO4 from ATP to the synthetic substrates poly(Glu, Tyr) 4:1 or poly(Arg, Ser) 3:1 attached to the bioactive surface of microtiter plates serves as the basis to evaluate enzyme activity. After an incubation period, the amount of phosphate transferred is measured by first washing the plate with 0.5% phosphoric acid, adding liquid scintillant, and then counting in a liquid scintillation detector.

c-Met = target: T2, c-Met (Homo sapiens, UniProt P08581); assay: Kinase inhibition assay (33P transfer), c-Met; settings: Table 2, kinase inhibition class; for IC50: read-out: Met-1
T2 construct: Kinases are expressed as either kinase domains or full length constructs; made in house
T2 sequence (P08581 25-1390): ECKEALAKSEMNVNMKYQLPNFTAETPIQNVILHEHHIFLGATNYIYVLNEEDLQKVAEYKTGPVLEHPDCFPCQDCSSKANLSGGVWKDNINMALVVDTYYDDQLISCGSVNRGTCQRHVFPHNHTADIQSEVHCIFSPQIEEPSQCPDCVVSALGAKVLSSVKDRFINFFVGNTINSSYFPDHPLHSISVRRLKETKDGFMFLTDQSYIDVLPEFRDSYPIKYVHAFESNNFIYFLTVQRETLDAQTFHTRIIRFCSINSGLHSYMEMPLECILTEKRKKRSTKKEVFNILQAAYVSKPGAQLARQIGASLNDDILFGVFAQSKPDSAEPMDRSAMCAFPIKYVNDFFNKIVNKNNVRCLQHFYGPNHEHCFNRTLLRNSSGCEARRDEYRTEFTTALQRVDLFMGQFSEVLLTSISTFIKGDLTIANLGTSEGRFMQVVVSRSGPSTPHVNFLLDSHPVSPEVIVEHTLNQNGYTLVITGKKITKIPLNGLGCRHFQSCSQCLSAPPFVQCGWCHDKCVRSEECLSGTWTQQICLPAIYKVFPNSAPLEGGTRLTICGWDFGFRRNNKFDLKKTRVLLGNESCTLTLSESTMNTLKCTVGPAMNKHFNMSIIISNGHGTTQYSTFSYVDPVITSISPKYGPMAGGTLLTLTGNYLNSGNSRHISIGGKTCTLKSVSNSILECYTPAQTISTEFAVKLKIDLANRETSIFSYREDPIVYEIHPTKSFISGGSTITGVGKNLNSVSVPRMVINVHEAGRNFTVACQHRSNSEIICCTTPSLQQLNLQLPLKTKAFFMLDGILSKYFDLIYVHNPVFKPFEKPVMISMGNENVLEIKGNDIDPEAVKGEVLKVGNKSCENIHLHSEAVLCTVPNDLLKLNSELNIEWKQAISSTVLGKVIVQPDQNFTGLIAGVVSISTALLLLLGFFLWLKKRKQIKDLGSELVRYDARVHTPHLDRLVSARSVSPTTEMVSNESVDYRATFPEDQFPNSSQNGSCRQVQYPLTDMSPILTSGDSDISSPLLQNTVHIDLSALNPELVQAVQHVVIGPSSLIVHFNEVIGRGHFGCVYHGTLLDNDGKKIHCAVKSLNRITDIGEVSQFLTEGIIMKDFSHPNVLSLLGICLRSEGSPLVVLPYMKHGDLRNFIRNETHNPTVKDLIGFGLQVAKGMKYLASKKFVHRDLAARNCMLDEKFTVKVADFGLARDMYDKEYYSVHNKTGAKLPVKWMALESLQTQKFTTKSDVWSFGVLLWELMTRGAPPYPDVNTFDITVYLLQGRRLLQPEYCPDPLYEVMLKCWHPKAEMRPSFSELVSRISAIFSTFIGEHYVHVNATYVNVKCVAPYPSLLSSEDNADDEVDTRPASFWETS
Excerpt: as §1
(§4) Kinases are expressed as either kinase domains or full length constructs fused to glutathione S-transferase (GST) or polyHistidine tagged fusion proteins in either E. colior Baculovirus-High Five expression systems. They are purified to near homogeneity by affinity chromatography essentially as previously described (Lehr et al., 1996; Gish et al., 1995). In some instances, kinases are co-expressed or mixed with purified or partially purified regulatory polypeptides prior to measurement of activity.
as §3, with “Kinase activity and inhibition are measured essentially by established protocols (Braunwalder et al., 1996). Briefly,” for “Briefly,”, “detector. The IC50 is determined by the concentration of compound that causes a 50% reduction in the amount of […] incorporated onto the substrate bound to the plate.” for “detector.”

Itk = target: T3, Itk (Homo sapiens, UniProt Q08881); assay: Kinase inhibition assay (33P transfer), Itk; settings: for IC50: read-out: Itk-1
T3 construct: Kinases are expressed as either kinase domains or full length constructs; made in house
T3 sequence (Q08881 1-620): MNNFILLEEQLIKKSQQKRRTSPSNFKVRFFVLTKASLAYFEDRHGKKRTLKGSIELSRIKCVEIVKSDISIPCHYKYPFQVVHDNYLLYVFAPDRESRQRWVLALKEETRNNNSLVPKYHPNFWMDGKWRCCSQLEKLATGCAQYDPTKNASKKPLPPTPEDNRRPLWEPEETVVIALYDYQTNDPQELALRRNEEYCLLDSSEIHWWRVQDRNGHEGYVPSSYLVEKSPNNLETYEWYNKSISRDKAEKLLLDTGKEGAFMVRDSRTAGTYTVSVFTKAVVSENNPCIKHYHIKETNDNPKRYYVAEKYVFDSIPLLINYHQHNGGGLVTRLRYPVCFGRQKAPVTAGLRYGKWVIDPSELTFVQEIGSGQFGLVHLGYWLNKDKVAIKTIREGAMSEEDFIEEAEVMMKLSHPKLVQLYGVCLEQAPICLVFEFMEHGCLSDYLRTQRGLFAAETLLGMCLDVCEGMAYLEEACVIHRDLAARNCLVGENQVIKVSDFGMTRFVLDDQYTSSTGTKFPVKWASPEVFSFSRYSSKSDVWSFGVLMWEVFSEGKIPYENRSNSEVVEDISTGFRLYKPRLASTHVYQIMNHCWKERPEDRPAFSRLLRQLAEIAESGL
Excerpt: as §1, §4
as §3, with “Kinase activity and inhibition are measured essentially by established protocols (Braunwalder et al., 1996). Briefly,” for “Briefly,”, “detector. The IC50 is determined by the concentration of compound that causes a 50% reduction in the amount of […] incorporated onto the substrate bound to the plate.” for “detector.”

EGFR = target: T4, EGFR (Homo sapiens, UniProt P00533); assay: Kinase inhibition assay (33P transfer), EGFR; settings: Table 2, kinase inhibition class; for IC50: read-out: EGFR-1
T4 construct: Kinases are expressed as either kinase domains or full length constructs; made in house
T4 sequence (P00533 25-1210, species assumed): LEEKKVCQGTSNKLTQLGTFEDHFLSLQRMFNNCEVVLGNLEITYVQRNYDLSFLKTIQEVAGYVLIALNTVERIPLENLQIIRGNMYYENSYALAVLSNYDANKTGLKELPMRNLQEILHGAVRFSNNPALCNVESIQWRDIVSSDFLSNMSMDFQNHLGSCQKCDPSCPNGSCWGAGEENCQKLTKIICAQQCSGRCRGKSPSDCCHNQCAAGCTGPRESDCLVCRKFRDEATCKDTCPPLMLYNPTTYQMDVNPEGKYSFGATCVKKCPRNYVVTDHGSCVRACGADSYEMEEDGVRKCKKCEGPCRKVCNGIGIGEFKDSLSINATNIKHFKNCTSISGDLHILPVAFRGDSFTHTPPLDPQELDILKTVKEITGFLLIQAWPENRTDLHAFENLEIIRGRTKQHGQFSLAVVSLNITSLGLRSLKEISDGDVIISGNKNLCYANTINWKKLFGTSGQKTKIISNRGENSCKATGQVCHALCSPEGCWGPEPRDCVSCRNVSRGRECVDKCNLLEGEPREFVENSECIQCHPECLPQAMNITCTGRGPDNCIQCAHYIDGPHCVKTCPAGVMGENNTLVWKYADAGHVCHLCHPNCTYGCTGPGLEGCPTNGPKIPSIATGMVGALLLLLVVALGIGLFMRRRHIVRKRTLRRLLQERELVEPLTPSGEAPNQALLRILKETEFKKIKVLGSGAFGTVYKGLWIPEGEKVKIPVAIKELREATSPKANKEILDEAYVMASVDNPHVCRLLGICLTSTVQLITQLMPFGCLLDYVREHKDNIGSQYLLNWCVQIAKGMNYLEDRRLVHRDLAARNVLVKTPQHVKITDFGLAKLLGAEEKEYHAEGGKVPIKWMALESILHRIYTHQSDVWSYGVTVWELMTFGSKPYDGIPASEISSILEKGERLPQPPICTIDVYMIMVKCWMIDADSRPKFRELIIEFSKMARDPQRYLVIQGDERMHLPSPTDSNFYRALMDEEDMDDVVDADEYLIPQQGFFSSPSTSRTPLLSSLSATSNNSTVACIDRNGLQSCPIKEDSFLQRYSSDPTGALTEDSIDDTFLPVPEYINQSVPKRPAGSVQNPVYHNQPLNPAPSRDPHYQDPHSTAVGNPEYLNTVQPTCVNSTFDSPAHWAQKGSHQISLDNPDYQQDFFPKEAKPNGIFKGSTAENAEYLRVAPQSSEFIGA
Excerpt: as §1, §4
as §3, with “Kinase activity and inhibition are measured essentially by established protocols (Braunwalder et al., 1996). Briefly,” for “Briefly,”, “detector. The IC50 is determined by the concentration of compound that causes a 50% reduction in the amount of […] incorporated onto the substrate bound to the plate.” for “detector.”

AKT = target: T5, AKT (Homo sapiens, UniProt Q9Y243); assay: Kinase inhibition assay (33P transfer), AKT; settings: Table 2, kinase inhibition class; for IC50: read-out: AKT3-1
T5 construct: Kinases are expressed as either kinase domains or full length constructs; made in house
T5 sequence (Q9Y243 whole entry, the tested form may be a part): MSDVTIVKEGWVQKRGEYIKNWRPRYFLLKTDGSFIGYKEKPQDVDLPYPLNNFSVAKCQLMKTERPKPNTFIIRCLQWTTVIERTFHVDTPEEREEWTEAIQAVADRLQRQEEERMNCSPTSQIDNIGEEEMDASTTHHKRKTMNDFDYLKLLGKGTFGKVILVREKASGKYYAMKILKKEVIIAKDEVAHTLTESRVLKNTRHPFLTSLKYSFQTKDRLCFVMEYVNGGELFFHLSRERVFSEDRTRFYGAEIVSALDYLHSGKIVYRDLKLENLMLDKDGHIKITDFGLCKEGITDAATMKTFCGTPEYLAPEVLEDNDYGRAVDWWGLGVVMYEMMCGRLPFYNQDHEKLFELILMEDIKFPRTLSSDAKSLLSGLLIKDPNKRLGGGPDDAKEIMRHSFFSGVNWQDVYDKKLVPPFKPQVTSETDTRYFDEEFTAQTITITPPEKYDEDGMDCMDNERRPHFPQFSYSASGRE
Excerpt: as §1, §2, §3

Lck = target: T6, Lck (Homo sapiens, UniProt P06239); assay: Kinase inhibition assay (33P transfer), Lck; settings: for IC50: read-out: Lck-1
T6 construct: Kinases are expressed as either kinase domains or full length constructs; made in house
T6 sequence (P06239 whole entry, species assumed, the tested form may be a part): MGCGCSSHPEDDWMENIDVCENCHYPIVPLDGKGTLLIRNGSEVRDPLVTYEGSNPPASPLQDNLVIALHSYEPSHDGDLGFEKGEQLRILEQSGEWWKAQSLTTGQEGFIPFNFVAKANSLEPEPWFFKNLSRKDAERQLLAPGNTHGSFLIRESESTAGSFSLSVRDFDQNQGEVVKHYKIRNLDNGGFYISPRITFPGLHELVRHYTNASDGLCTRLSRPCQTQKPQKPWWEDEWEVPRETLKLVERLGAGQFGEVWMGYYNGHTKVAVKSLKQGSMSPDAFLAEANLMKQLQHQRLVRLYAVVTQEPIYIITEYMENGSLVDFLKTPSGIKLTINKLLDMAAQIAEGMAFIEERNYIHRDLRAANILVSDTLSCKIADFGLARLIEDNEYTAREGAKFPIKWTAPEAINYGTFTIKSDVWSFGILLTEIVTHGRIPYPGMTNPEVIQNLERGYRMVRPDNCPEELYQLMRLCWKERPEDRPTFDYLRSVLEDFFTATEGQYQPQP
Excerpt: as §1, §2, §3

Kdr = target: T7, Kdr (Homo sapiens, UniProt P35968); assay: Kinase inhibition assay (33P transfer), Kdr; settings: for IC50: read-out: KDR-1
T7 construct: Kinases are expressed as either kinase domains or full length constructs; made in house
T7 sequence (P35968 20-1356, species assumed): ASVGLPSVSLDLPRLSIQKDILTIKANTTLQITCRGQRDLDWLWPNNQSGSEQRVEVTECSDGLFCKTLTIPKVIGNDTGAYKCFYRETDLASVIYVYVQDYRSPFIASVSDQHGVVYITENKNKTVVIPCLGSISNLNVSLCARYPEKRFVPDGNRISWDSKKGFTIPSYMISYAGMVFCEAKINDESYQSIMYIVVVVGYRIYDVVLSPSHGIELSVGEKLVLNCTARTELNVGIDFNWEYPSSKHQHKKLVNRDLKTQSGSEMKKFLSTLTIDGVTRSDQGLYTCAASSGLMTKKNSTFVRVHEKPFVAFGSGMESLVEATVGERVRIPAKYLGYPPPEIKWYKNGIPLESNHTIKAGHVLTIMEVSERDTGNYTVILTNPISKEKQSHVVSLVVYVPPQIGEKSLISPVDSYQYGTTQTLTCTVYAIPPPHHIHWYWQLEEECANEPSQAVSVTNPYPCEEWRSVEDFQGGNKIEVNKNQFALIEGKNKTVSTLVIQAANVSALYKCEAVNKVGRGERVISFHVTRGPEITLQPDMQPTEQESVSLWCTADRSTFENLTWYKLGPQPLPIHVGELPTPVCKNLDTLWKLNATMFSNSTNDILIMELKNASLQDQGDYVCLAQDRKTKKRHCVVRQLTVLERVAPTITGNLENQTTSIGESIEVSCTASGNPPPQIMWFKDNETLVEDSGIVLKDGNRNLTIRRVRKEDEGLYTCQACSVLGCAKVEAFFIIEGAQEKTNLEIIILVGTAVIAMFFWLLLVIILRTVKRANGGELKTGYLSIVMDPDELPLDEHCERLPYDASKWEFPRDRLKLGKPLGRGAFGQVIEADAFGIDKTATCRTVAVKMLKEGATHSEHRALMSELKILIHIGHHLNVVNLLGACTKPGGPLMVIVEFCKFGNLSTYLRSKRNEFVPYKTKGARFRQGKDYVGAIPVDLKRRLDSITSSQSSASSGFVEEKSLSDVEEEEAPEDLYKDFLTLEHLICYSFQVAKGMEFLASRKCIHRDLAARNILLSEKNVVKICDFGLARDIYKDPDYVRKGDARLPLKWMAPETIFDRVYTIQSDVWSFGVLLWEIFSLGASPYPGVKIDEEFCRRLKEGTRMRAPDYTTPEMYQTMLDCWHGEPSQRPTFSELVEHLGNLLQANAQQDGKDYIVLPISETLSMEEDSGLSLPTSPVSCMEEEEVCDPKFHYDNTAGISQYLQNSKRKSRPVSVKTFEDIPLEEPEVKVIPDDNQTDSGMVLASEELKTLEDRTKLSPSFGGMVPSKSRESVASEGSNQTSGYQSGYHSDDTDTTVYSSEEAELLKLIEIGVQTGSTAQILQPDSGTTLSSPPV
Excerpt: as §1, §2, §3

SMILES	IC50 (Zap-70; Table 3)	IC50 (c-Met)	IC50 (Itk; Table 3)	IC50 (EGFR)	IC50 (AKT)	IC50 (Lck; Table 3)	IC50 (Kdr; Table 3)	IC50 (Zap-70)	IC50 (Itk)	IC50 (Lck)	IC50 (Kdr)	Zap-1 (Zap-70)	Met-1 (c-Met)	Itk-1 (Itk)	EGFR-1 (EGFR)	AKT3-1 (AKT)	Lck-1 (Lck)	KDR-1 (Kdr)
O=C(Nc1ccc(Nc2ncnc(-n3c(=O)[nH]c4ccccc43)n2)cc1)O[C@@H]1CCOC1 [Compound 454]	> 10.4 µM	5.54 to 8.08 µM	> 10.4 µM	> 10.4 µM	> 10.4 µM	0.923 to 5.54 µM	0.923 to 5.54 µM											
COc1cc(Nc2ncnc(-c3ccc(NCc4ccccc4)nc3)n2)cc(OC)c1OC [Compound 471]		> 10.1 µM		> 10.1 µM	> 10.1 µM			> 10.1 µM	> 10.1 µM	> 10.1 µM	> 10.1 µM							
O=c1[nH]c2ccccc2n1-c1ncnc(Nc2cccc(OC(F)(F)F)c2)n1 [Compound 461]	> 11.6 µM	> 11.6 µM	> 11.6 µM	> 11.6 µM	> 11.6 µM	> 11.6 µM	> 11.6 µM											
O=c1[nH]c2ccccc2n1-c1ncnc(Nc2ncccn2)n1 [Compound 490]		> 14.7 µM		> 14.7 µM	> 14.7 µM			> 14.7 µM	> 14.7 µM	> 14.7 µM	> 14.7 µM							
COc1cc(Nc2ncnc(Nc3nc4ccccc4s3)n2)cc(OC)c1OC [Compound 469]		> 11 µM		> 11 µM	> 11 µM			> 11 µM	> 11 µM	> 11 µM	0.975 to 5.85 µM							
O=c1[nH]c2ccccc2n1-c1ncnc(Nc2ccc(O)cc2)n1 [Compound 682]		7.49 to 10.9 µM		1.25 to 7.49 µM	> 14 µM			> 14 µM	10.9 to 14 µM	7.49 to 10.9 µM	1.25 to 7.49 µM							
CNc1ncnc(Nc2cc(OC)c(OC)c(OC)c2)n1 [Compound 409]	> 15.4 µM	> 15.4 µM	> 15.4 µM	> 15.4 µM	> 15.4 µM	12 to 15.4 µM	> 15.4 µM											
COc1cc(Nc2ncnc(-c3ccc(NCCCN)nc3)n2)cc(OC)c1OC [Compound 472]		> 10.9 µM		> 10.9 µM	> 10.9 µM			> 10.9 µM	> 10.9 µM	> 10.9 µM	0.972 to 5.83 µM							
CC[C@H]1CN(c2ccc(-c3ncnc(Nc4cc(OC)c(OC)c(OC)c4)n3)cn2)CCN1 [Compound 446]	> 9.97 µM	> 9.97 µM	> 9.97 µM	> 9.97 µM	> 9.97 µM	> 9.97 µM	> 9.97 µM											
Clc1ncnc(Nc2cc(-c3ccccc3)n[nH]2)n1 [Compound 976]		> 16.5 µM		> 16.5 µM	> 16.5 µM			8.8 to 12.8 µM	> 16.5 µM	> 16.5 µM	> 16.5 µM							
O=c1[nH]c2ccccc2n1-c1ncnc(Nc2ccccn2)n1 [Compound 487]		> 14.7 µM		> 14.7 µM	> 14.7 µM			> 14.7 µM	> 14.7 µM	> 14.7 µM	> 14.7 µM							
O=c1[nH]c2ccccc2n1-c1ncnc(Nc2ccc3[nH]ncc3c2)n1 [Compound 685]		> 13.1 µM		> 13.1 µM	> 13.1 µM			> 13.1 µM	> 13.1 µM	> 13.1 µM	> 13.1 µM							
COc1cc(Nc2ncnc(-n3c(=O)[nH]c4ccccc43)n2)cc(OCCN2CCOCC2)c1OC [Compound 1039]		> 9.12 µM		> 9.12 µM	> 9.12 µM			> 9.12 µM	> 9.12 µM	0.81 to 4.86 µM	< 0.81 µM							
COc1cc(Nc2ncnc(Nc3[nH]ncc3-c3cccc(Cl)c3)n2)cc(OC)c1OC [Compound 999]		> 9.91 µM		> 9.91 µM	> 9.91 µM			> 9.91 µM	> 9.91 µM	> 9.91 µM	> 9.91 µM							
O=c1[nH]c2ccccc2n1-c1ncnc(Nc2ccc(F)c(Cl)c2)n1 [Compound 459]	> 12.6 µM	6.73 to 9.81 µM	> 12.6 µM	> 12.6 µM	> 12.6 µM	> 12.6 µM	1.12 to 6.73 µM											
COc1ncnc(Nc2cc(OC)c(OC)c(OC)c2)n1 [Compound 421]	> 15.4 µM	> 15.4 µM	> 15.4 µM	> 15.4 µM	> 15.4 µM	> 15.4 µM	> 15.4 µM											
CC(=O)Nc1ccc(Nc2ncnc(-n3c(N)nc4ccccc43)n2)cc1 [Compound 475]		6.66 to 9.71 µM		> 12.5 µM	> 12.5 µM			> 12.5 µM	1.11 to 6.66 µM	1.11 to 6.66 µM	< 1.11 µM							
COc1cc(Nc2ncnc(-c3cccnc3NCCN)n2)cc(OC)c1OC [Compound 1074]												E (E>4.5 ug/mL)	E (E>4.5 ug/mL)	E (E>4.5 ug/mL)	E (E>4.5 ug/mL)	E (E>4.5 ug/mL)	C (C>2.4 and <3.5 ug/mL)	B (B>0.4 and <2.4 ug/mL)
CC(C)(C)OC(=O)NCc1cccc(Nc2ncnc(Nc3cc(C(C)(C)C)n[nH]3)n2)c1 [Compound 987]		> 10.3 µM		> 10.3 µM	> 10.3 µM			> 10.3 µM	> 10.3 µM	0.912 to 5.47 µM	> 10.3 µM							
CC(C)(C)c1cc(Nc2ncnc(Nc3cccc(C(N)=O)c3)n2)[nH]n1 [Compound 500]		1.14 to 6.81 µM		1.14 to 6.81 µM	> 12.8 µM			> 12.8 µM	1.14 to 6.81 µM	1.14 to 6.81 µM	1.14 to 6.81 µM							
O=c1[nH]c2ccccc2n1-c1ncnc(Nc2ccncc2)n1 [Compound 488]		> 14.7 µM		> 14.7 µM	> 14.7 µM			> 14.7 µM	> 14.7 µM	> 14.7 µM	1.31 to 7.86 µM							
O=c1[nH]c2ccccc2n1-c1ncnc(Nc2cccc3ncccc23)n1 [Compound 686]		> 12.7 µM		> 12.7 µM	> 12.7 µM			> 12.7 µM	> 12.7 µM	> 12.7 µM	> 12.7 µM							
